Values quoted from earlier work in patent publication US20240360061A1, “Synthetic Cannabinoid Compounds, Pharmaceutical Compositions, and Treatment Methods” (Miralogx LLC, priority 2022, published 2024).

Columns and labels:
[1] = several clinical studies
[2] = oral THC 15 mg; compared with salbutamol, isoprenaline
[3] = 2.5 to 5 mg THC, three patients
[4] = Type-2 diabetes; cited from J. Cannabis Research (2020) 2:6

SMILES | mood in reactive depression [1] | anti-asthmatic (bronchodilator) effect [2] | effect on pruritus due to liver diseases [3] | Homeostasis Model Assessment (HOMA2) of pancreatic β-cell function [4] | fasting plasma glucose [4]
CCCCCc1cc(O)c2c(c1)OC(C)(C)[C@@H]1CCC(C)=C[C@@H]21 [THC, tetrahydrocannabinol] | improvement of mood | approximately correspond to those obtained with therapeutic doses of common bronchodilator drugs | effective |  | 
CCCc1cc(O)c2c(c1)OC(C)(C)[C@@H]1CCC(C)=C[C@@H]21 [THCV, Δ9-Tetrahydrocannabivarin] |  |  |  | improve | significantly decrease
